# Values of other authors in paper PMC3618964 (Journal of medicinal chemistry, 2010).
# Target: SaDHFR
# Settings: read-out: Ki value (SaDHFR)
structure (smiles),measurement,value
CCc1nc(N)nc(N)c1C#CCc1cc(OC)ccc1OC [Compound 9],Ki,9.9 nM
